The source of these data is ChEMBL document CHEMBL1151803, “Melanin synthesis inhibitors from Lespedeza cyrtobotrya” (J Nat Prod, 2009).

Data set [1] is described as follows: Inhibition of melanin synthesis in NHEM after 24 hrs by liquid scintillation. The format is functional, Homo sapiens.
Data set [2] is described as follows: Cytotoxicity against NHEM cells assessed as cell viability 24 hrs by WST-8 assay. It is filed as cell-based. The settings on record: human.

Turning to `CC1(C)C=Cc2c(O)ccc(C(=O)/C=C/c3ccc(O)cc3)c2O1` [LESPECYRTIN B2], the IC50 in data set [1] (read-out: IC50) came out at 1 µM. For the same compound, the Activity entry in data set [2] was “Non-toxic”.
For the compound `CC(C)=CCc1c(O)ccc2c1O[C@H]1c3ccc(O)c(CC=C(C)C)c3OC[C@@H]21` [ERYBRAEDIN A], in data set [1] (read-out: IC50), the IC50 was determined as 2 µM. The Activity result in data set [2] is given as “Non-toxic”.
In the same order, the values of `CC(C)=CCc1c(O)ccc2c1O[C@H]1c3ccc(O)cc3OC[C@@H]21` [PHASEOLLIDIN] are 8.7 µM and “Non-toxic”.
With `CC1(C)C=Cc2cc3c(cc2O1)OC[C@H]1c2ccc4c(c2O[C@@H]31)C=CC(C)(C)O4` [LESPECYRTIN E1], the Activity result in data set [2] is “Non-toxic”.
For `CC(C)(O)C1Cc2c(O)ccc(C(=O)/C=C/c3ccc(O)cc3)c2O1` (stereo not drawn) [LESPECYRTIN B3], the IC50 in data set [1] (read-out: IC50) came to 9.1 µM. For the same compound, the Activity entry in data set [2] is listed as “Non-toxic”.
The corresponding values for `C=C(C)C1Cc2c(ccc(C(=O)/C=C/c3ccc(O)cc3)c2O)O1` (stereo not drawn) [LESPECYRTIN B1] are 1.3 µM and “Non-toxic”.
With `Cc1c(O)cc2occ(-c3ccc(O)cc3)c(=O)c2c1O`, the half-inhibitory concentration (IC50) result in data set [1] was “Not Active”. Moreover, in data set [2], the Activity entry is on record as “Non-toxic”.
As to `COc1c2c(cc3c1[C@@H]1Oc4ccc5c(c4[C@@H]1CO3)C=CC(C)(C)O5)OC(C)(C)C=C2` [GANGETININ], in data set [1] (read-out: IC50), the IC50 worked out at 4.6 µM. Moreover, the Activity entry in data set [2] is listed as “Non-toxic”.
`CC(C)=CCc1cc2c(cc1O)OCc1c-2oc2c(CC=C(C)C)c(O)c(O)cc12` [LESPECYRTIN F2]: in data set [1] (read-out: IC50), the half-maximal inhibitory concentration (IC50) is 15.9 µM. Besides, in data set [2], the Activity result is “Non-toxic”.
For `CC(C)=CCc1c(O)c(O)cc2c3c(oc12)-c1ccc(O)cc1OC3` [LESPECYRTIN F1], the IC50 entry in data set [1] is given as “Not Active”. In data set [2], the Activity result is listed as “Non-toxic”.
For `O=c1c(-c2ccc(O)cc2)coc2cc(O)cc(O)c12` [GENISTEIN], in data set [1] (read-out: IC50), the IC50 was 29.2 µM. Moreover, the Activity result in data set [2] is reported as “Non-toxic”.
Regarding `CC(C)=CCC1=C(O)C(C(=O)c2c(-c3cc(CC=C(C)C)c(O)cc3O)oc3c(CC=C(C)C)c(O)c(O)cc23)=C[C@@H]2c3c(c4cc(CC=C(C)C)c(O)cc4oc3=O)O[C@H]12` [LESPECYRTIN H2], the IC50 result in data set [1] is given as “Not Active”. In addition, the Activity entry in data set [2] is on record as “Non-toxic”.
Regarding `CC(C)=CCc1cc2c(cc1O)OC[C@H]1c3cc(C)c(O)c(CC=C(C)C)c3O[C@@H]21` [LESPEFLORIN G4], in data set [1] (read-out: IC50), the half-inhibitory concentration (IC50) worked out at 3.2 µM. Further, the Activity entry in data set [2] is “Non-toxic”.
As for `CC(C)=CCc1cc2c(cc1O)oc(=O)c1c3cc(O)c(O)c(CC=C(C)C)c3oc21` [LESPEFLORIN I2], the IC50 in data set [1] (read-out: IC50) amounted to 25.7 µM. Moreover, the Activity entry in data set [2] was “Non-toxic”.
With `CC(C)=CCc1cc2c(cc1O)OC[C@H]1c3ccc(O)c(CC=C(C)C)c3O[C@@H]21` [ERYBRAEDIN C], the IC50 in data set [1] (read-out: IC50) turned out to be 5.5 µM. Further, in data set [2], the Activity entry is reported as “Non-toxic”.
The corresponding values for `CC(C)=CCc1cc2c(cc1O)O[C@H](c1ccc(O)cc1)CC2=O` [BAVACHIN] are 18 µM and “Non-toxic”.
In the same order, the values of `CC(C)=CCc1c(O)cc2occ(-c3ccc(O)cc3O)c(=O)c2c1O` [UNCINANONE A] are 5.4 µM and “Non-toxic”.
As to `CC(C)=CCc1c(O)ccc2c1O[C@H](c1ccc(O)cc1)[C@@H](O)C2=O` [LESPECYRTIN A1], the IC50 entry in data set [1] is given as “Not Active”. Further, the Activity result in data set [2] is listed as “Non-toxic”.
Turning to `CC(C)=CCc1cc(-c2oc3c(CC=C(C)C)c(O)c(O)cc3c2C(=O)c2cc3c(c(CC=C(C)C)c2O)O[C@H]2c4cc(CC=C(C)C)c(O)cc4OC[C@@H]32)c(O)cc1O` [LESPEFLORIN J3], the Activity result in data set [2] is reported as “Non-toxic”.
On to `CC(C)=CCc1c(O)cc(O)c2c1O[C@H](c1ccc(O)cc1O)CC2=O` [LEACHIANONE G], for which, in data set [1], the IC50 entry was “Not Active”. Moreover, in data set [2], the Activity result is reported as “Non-toxic”.
In the same order, the values of `CC(C)=CCc1c(O)c(O)cc2c1oc1c3ccc(O)cc3oc(=O)c21` [LESPECYRTIN G1] are “Not Active” and “Non-toxic”.
Consider `CC(C)=CCc1c(O)ccc(C(=O)/C=C/c2ccc(O)cc2)c1O` [ISOBAVACHALCONE], for which, in data set [1] (read-out: IC50), the 50% inhibitory concentration (IC50) worked out at 1.4 µM. In addition, the Activity entry in data set [2] was “Non-toxic”.
As to `Oc1ccc(O)cc1` [HYDROQUINONE], the IC50 in data set [1] (read-out: IC50) came to 103 µM.
On to `CC(C)=CCc1c(O)c(C)cc2c1O[C@H]1c3cc4c(cc3OC[C@@H]21)OC(C)(C)C=C4` [LESPECYRTIN E5], for which, in data set [1] (read-out: IC50), the IC50 was determined as 1.5 µM. For the same compound, the Activity result in data set [2] is “Non-toxic”.
On to `CC1(C)C=Cc2c(ccc3c2O[C@H]2c4ccc(O)cc4OC[C@@H]32)O1` [PHASEOLIN], for which the IC50 in data set [1] (read-out: IC50) was determined as 7.5 µM. The Activity entry in data set [2] is “Non-toxic”.
For the compound `CC1(C)C=Cc2c(ccc(C(=O)CCc3ccc(O)cc3)c2O)O1`, the IC50 in data set [1] (read-out: IC50) was determined as 2 µM. Besides, the Activity entry in data set [2] is listed as “Non-toxic”.
The corresponding values for `COc1cc([C@@H]2COc3cc(O)c(CC=C(C)C)cc3C2)c(O)cc1O` [LESPECYRTIN D1] are 2.1 µM and “Non-toxic”.
As for `CC(C)=CCC1=C(O)C(C(=O)c2c(-c3cc(CC=C(C)C)c(O)cc3O)oc3c4c(c(O)cc23)OC(C)(C)C=C4)=C[C@@H]2c3c(c4cc(CC=C(C)C)c(O)cc4oc3=O)O[C@H]12` [LESPECYRTIN H4], in data set [1] (read-out: IC50), the concentration for half-maximal inhibition (IC50) came to 6.2 µM. In addition, the Activity result in data set [2] was “Non-toxic”.
With `COc1c(O)ccc(-c2coc3cc(O)cc(O)c3c2=O)c1OC` [BAVAISOFLAVANONE], the IC50 in data set [1] (read-out: IC50) is 38.4 µM. For the same compound, the Activity entry in data set [2] is “Non-toxic”.
The corresponding values for `CC(C)=CCC1=C(O)C(Cc2c(-c3cc(CC=C(C)C)c(O)cc3O)oc3c(CC=C(C)C)c(O)c(O)cc23)=C[C@@H]2c3c(c4cc(CC=C(C)C)c(O)cc4oc3=O)O[C@H]12` [LESPECYRTIN H1] are 8.9 µM and “Non-toxic”.
The corresponding values for `CC(C)=CCc1cc(-c2coc3cc(O)ccc3c2=O)ccc1O` [NEOBAVAISOFLAVONE] are 9.4 µM and “Non-toxic”.
The corresponding values for `CC(C)=CCC1=C(O)C(C(=O)c2c(-c3cc4c(cc3O)OC(C)(C)C=C4)oc3c(CC=C(C)C)c(O)c(O)cc23)=C[C@@H]2c3c(c4cc(CC=C(C)C)c(O)cc4oc3=O)O[C@H]12` [LESPECYRTIN H3] are 10.1 µM and “Non-toxic”.
For `CC(C)=CCc1cc([C@@H]2CC(=O)c3ccc(O)cc3O2)ccc1O` [ABYSSINONE II], in data set [1] (read-out: IC50), the IC50 stood at 2 µM. In data set [2], the Activity entry was “Non-toxic”.
On to `CC(C)=CCc1cc2c(cc1O)OC[C@H]1c3c4c(c(O)c(CC=C(C)C)c3O[C@@H]21)OC(C)(C)C=C4` [LESPECYRTIN E3], for which, in data set [1] (read-out: IC50), the IC50 was found to be 0.4 µM. Moreover, the Activity result in data set [2] is “Non-toxic”.
In the same order, the values of `CC(C)=CCC/C(C)=C/Cc1c(O)ccc(C(=O)/C=C/c2ccc(O)cc2)c1O` [XANTHOANGELOL] are 0.98 µM and “Non-toxic”.
`CC(C)=CCc1c(O)c2c(c3c1[C@@H]1COc4cc5c(cc4[C@@H]1O3)C=CC(C)(C)O5)C=CC(C)(C)O2` [LESPECYRTIN E2]: the IC50 in data set [1] (read-out: IC50) was 3.7 µM. In data set [2], the Activity entry is “Non-toxic”.
In the same order, the values of `COc1cc2c(cc1O)O[C@H]1c3cc4c(cc3OC[C@@H]21)OC(C)(C)[C@H](O)C4` [LESPECYRTIN E7] are 16 µM and “Non-toxic”.
The corresponding values for `CC(C)=CCc1c(O)c2c(c3c1O[C@H]1c4cc5c(cc4OC[C@@H]31)OC(C)(C)C=C5)C=CC(C)(C)O2` [LESPECYRTIN E4] are 4.5 µM and “Non-toxic”.
Regarding `CC(C)=CCCC1(C)C=Cc2c(ccc(C(=O)/C=C/c3ccc(O)cc3)c2O)O1` (stereo not drawn) [LESPEOL], in data set [1] (read-out: IC50), the half-inhibitory concentration (IC50) was 2.4 µM. The Activity result in data set [2] was “Non-toxic”.
Take `O=C1C[C@@H](c2ccc(O)cc2)Oc2cc(O)ccc21` [LIQUIRTIGENIN]: in data set [1] (read-out: IC50), the IC50 was 14.7 µM. The Activity result in data set [2] is reported as “Non-toxic”.
`OC[C@H]1O[C@@H](Oc2ccc(O)cc2)[C@H](O)[C@@H](O)[C@@H]1O` [ARBUTIN]: the IC50 in data set [1] (read-out: IC50) was 2.2 µM.
On to `CC(C)=CCc1c(O)ccc2c1O[C@H]1c3cc(CCC(C)(C)O)c(O)cc3OC[C@@H]21` [LESPECYRTIN E6], for which the IC50 in data set [1] (read-out: IC50) was determined as 3.4 µM. The Activity result in data set [2] was “Non-toxic”.
`CC(C)=CCc1cc(/C=C/C(=O)c2ccc(O)cc2O)ccc1O` [LICOAGROCHALCONE A]: the IC50 in data set [1] (read-out: IC50) was 3.2 µM. The Activity result in data set [2] is “Non-toxic”.
As to `C=C(C)C1Cc2c(ccc(C(=O)CCc3ccc(O)cc3)c2O)O1` (stereo not drawn) [LESPECYRTIN C1], the IC50 in data set [1] (read-out: IC50) is 3 µM. In data set [2], the Activity entry was “Non-toxic”.
Turning to `O=C1C[C@@H](c2ccc(O)cc2)Oc2cc(O)cc(O)c21` [NARINGENIN], the IC50 in data set [1] (read-out: IC50) was 73.5 µM. In data set [2], the Activity entry is given as “Non-toxic”.
On to `Cc1c(O)cc2c(c1O)C(=O)[C@H](O)[C@@H](c1ccc(O)cc1)O2`, for which, in data set [1], the half-maximal inhibitory concentration (IC50) entry is “Not Active”. Besides, in data set [2], the Activity result is “Non-toxic”.

For orientation: IC50 means the concentration needed to halve the response being measured.
